Legend:
[1] = tested on: Influenza strain A549_A/WSN/33 (H1N1); experiment: Influenza antiviral assay (neuraminidase fluorescence readout); format: cell-based, Influenza virus; conditions: Influenza A virus, read-out: % Inhibition (EC50 class, Table 2)
[2] = biological target: Full length EN PA (influenza PA endonuclease) (Influenza A virus, UniProt P15659); experiment: EN PA FRET inhibition assay; format: biochemical; conditions: FRET probe, mean of a minimum of two independent experiments, read-out: Potency (IC50 class, Table 3)

| Compound | EC50 [1] | IC50 [2] |
| --- | --- | --- |
| CC(C)N1C[C@H](C(c2ccccc2)c2ccccc2)n2ncc(=O)c(OC(=O)C3CCCCC3)c2C1=O [Compound 112] | < 20 µM | 0.25 to 1 µM |
| CCN1CC(C(c2ccccc2)c2ccccc2)n2ncc(=O)c(O)c2C1=O (stereo not drawn) [Compound 5] | < 20 µM | < 0.25 µM |
| CN1CC(C(c2ccccc2)c2cccc(OC3CC3)c2)n2ncc(=O)c(O)c2C1=O (stereo not drawn) [Compound 105] | 20 to 100 µM | < 0.25 µM |
| CC#Cc1ccn(C(c2ccccc2)C2CN(C)C(=O)c3c(O)c(=O)cnn32)n1 (stereo not drawn) [Compound 115] | < 20 µM | < 0.25 µM |
| CN1CC(C(c2ccccc2)c2ccc(F)cc2)n2ncc(=O)c(O)c2C1=O (stereo not drawn) [Compound 40] | < 20 µM | < 0.25 µM |
| CC(C)N1CC(C(c2ccccc2)n2ccc(C#N)n2)n2ncc(=O)c(O)c2C1=O (stereo not drawn) [Compound 127] | < 20 µM | < 0.25 µM |
| CC(C)N1C[C@H]([C@@H](c2ccccc2)c2ccccn2)n2ncc(=O)c(O)c2C1=O [Compound 132] | < 20 µM | < 0.25 µM |
| CN1C[C@H]([C@H](c2ccccc2)n2cnc(I)c2)n2ncc(=O)c(O)c2C1=O [Compound 107-B] | 20 to 100 µM | < 0.25 µM |
| CN1C[C@@H](C2c3cc(Cl)ccc3CCc3ccc(Cl)cc32)n2ncc(=O)c(O)c2C1=O [Compound 52-A] | < 20 µM | < 0.25 µM |
| O=C1c2c(O)c(=O)cnn2[C@H](C(c2ccccc2)c2ccccc2)CN1C1CCOCC1 [Compound 63-B] | < 20 µM | 0.25 to 1 µM |
| CC(C)N1C[C@H](C(c2ccccc2)c2ccccc2)n2ncc(=O)c(OC(=O)C3CCOCC3)c2C1=O [Compound 120] | < 20 µM | < 0.25 µM |
| CCCN1C[C@H](C(c2cccc(F)c2)c2cccc(F)c2)n2ncc(=O)c(OC(=O)C(C)C)c2C1=O [Compound 80-A] | < 20 µM | < 0.25 µM |
| CCC#Cc1ccn(C(c2ccccc2)C2CN(C)C(=O)c3c(O)c(=O)cnn32)n1 (stereo not drawn) [Compound 117] | < 20 µM | < 0.25 µM |
| C[C@H](N1C[C@H](C(c2ccccc2)c2ccccc2)n2ncc(=O)c(O)c2C1=O)C(F)(F)F [Compound 18-A] | < 20 µM | < 0.25 µM |
| CCN1CC(C(c2ccccc2)c2cccc(F)c2)n2ncc(=O)c(O)c2C1=O (stereo not drawn) [Compound 24] | < 20 µM | < 0.25 µM |
| CN1CC(C2c3ccc(F)cc3CCc3cc(F)ccc32)n2ncc(=O)c(O)c2C1=O (stereo not drawn) [Compound 89] | < 20 µM | < 0.25 µM |
| CN1CC(C(c2ccccc2)c2ccc(Cl)cc2)n2ncc(=O)c(O)c2C1=O (stereo not drawn) [Compound 32] | < 20 µM | < 0.25 µM |
| CN1C[C@@H](C(c2ccccc2)c2ccccc2)n2ncc(=O)c(O)c2C1=O [Compound 1-B] | < 20 µM | 0.25 to 1 µM |
| CC(C)OC(=O)Oc1c2n(ncc1=O)[C@@H](C(c1ccccc1)c1ccccc1)CN(C(C)C)C2=O [Compound 133] | < 20 µM | ≥ 1 µM |
| CC(C)N1CC(C(c2ccccc2)c2cccc(Cl)c2)n2ncc(=O)c(O)c2C1=O (stereo not drawn) [Compound 20] | < 20 µM | < 0.25 µM |
| CC(C)Oc1cccc(C(c2ccccc2)[C@H]2CN(C)C(=O)c3c(O)c(=O)cnn32)c1 (stereo partly drawn) [Compound 54] | 20 to 100 µM | < 0.25 µM |
| CCCN1C[C@H](C(c2ccccc2)c2ccccc2)n2ncc(=O)c(O)c2C1=O [Compound 37-A] | < 20 µM | < 0.25 µM |
| COCCN1C[C@H](C(c2ccccc2)c2ccccc2)n2ncc(=O)c(O)c2C1=O [Compound 53-A] | < 20 µM | < 0.25 µM |
| CN1C[C@@H](C2c3cccc(F)c3CCc3c(F)cccc32)n2ncc(=O)c(O)c2C1=O [Compound 83-B] | 20 to 100 µM | 0.25 to 1 µM |
| CN1CC(C2c3ccccc3CCc3cccnc32)n2ncc(=O)c(O)c2C1=O (stereo not drawn) [Compound 42] | < 20 µM | < 0.25 µM |
| CN1C[C@H]([C@H]2c3cc(F)ccc3CCc3c(F)cccc32)n2ncc(=O)c(O)c2C1=O [Compound 71-B] | < 20 µM | < 0.25 µM |
| CCC#Cc1ccn([C@H](c2ccccc2)[C@H]2CN(C)C(=O)c3c(O)c(=O)cnn32)n1 [Compound 122] | < 20 µM | < 0.25 µM |

| Compound | EC50 [1] | IC50 [2] |
| --- | --- | --- |
| CN1CC(C(c2ccccc2)c2ccccc2)n2ncc(=O)c(O)c2C1=O (stereo not drawn) [Compound 1] | < 20 µM | < 0.25 µM |
| CCN1C[C@H](C(c2ccccc2)c2ccccc2)n2ncc(=O)c(O)c2C1=O [Compound 5-A] | < 20 µM | < 0.25 µM |
| CC(C)N1C[C@@H](C(c2ccccc2)c2ccccc2)n2ncc(=O)c(OCOC(=O)C(C)(C)N)c2C1=O [Compound 113-B] | 20 to 100 µM | 0.25 to 1 µM |
| CC(C)CN1C[C@H](C(c2cccc(F)c2)c2cccc(F)c2)n2ncc(=O)c(O)c2C1=O [Compound 86-A] | < 20 µM | < 0.25 µM |
| CN1C[C@@H]([C@@H](c2ccccc2)c2cccc(OC3CC3)c2)n2ncc(=O)c(O)c2C1=O [Compound 105-D] | 20 to 100 µM | ≥ 1 µM |
| CCN1C[C@H](C(c2cccc(F)c2)c2cccc(F)c2)n2ncc(=O)c(OCOC(=O)[C@@H](N)C(C)C)c2C1=O [Compound 95-A] | < 20 µM | < 0.25 µM |
| C[C@@H](N1C[C@@H](C(c2ccccc2)c2ccccc2)n2ncc(=O)c(O)c2C1=O)C(F)(F)F [Compound 18-B] | < 20 µM | < 0.25 µM |
| CCOc1c2n(ncc1=O)[C@@H](C(c1cccc(F)c1)c1cccc(F)c1)CN(CC)C2=O [Compound 85-A] | 20 to 100 µM | ≥ 1 µM |
| CN1C[C@H](C2c3cccc(F)c3CCc3c(F)cccc32)n2ncc(=O)c(O)c2C1=O [Compound 83-A] | < 20 µM | < 0.25 µM |
| Cc1cccc(C(c2ccccc2)C2CN(C)C(=O)c3c(O)c(=O)cnn32)c1 (stereo not drawn) [Compound 27] | < 20 µM | < 0.25 µM |
| C#Cc1ccn(C(c2ccccc2)C2CN(C)C(=O)c3c(O)c(=O)cnn32)n1 (stereo not drawn) [Compound 109] | < 20 µM | < 0.25 µM |
| CC(C)N1CC(C(c2cccc(F)c2)c2cccc(F)c2)n2ncc(=O)c(O)c2C1=O (stereo not drawn) [Compound 41] | < 20 µM | < 0.25 µM |
| CN1C[C@@H](C2c3ccc(F)cc3CCc3cc(F)ccc32)n2ncc(=O)c(O)c2C1=O [Compound 89-B] | < 20 µM | < 0.25 µM |
| CC(C)N1CC(C(c2ccccc2)c2cccc(F)c2)n2ncc(=O)c(O)c2C1=O (stereo not drawn) [Compound 47] | < 20 µM | < 0.25 µM |
| CC#Cc1ccn([C@H](c2ccccc2)[C@@H]2CN(C)C(=O)c3c(O)c(=O)cnn32)n1 [Compound 115-A] | < 20 µM | ≥ 1 µM |
| CN1C[C@H](C2c3cc(F)ccc3CCc3ccc(F)cc32)n2ncc(=O)c(O)c2C1=O [Compound 45-A] | < 20 µM | < 0.25 µM |
| O=C1c2c(O)c(=O)cnn2[C@@H](C(c2cccc(F)c2)c2cccc(F)c2)CN1CC1CC1 [Compound 93-A] | < 20 µM | < 0.25 µM |
| Cc1cccc(C(c2cccc(C)c2)C2CN(C)C(=O)c3c(O)c(=O)cnn32)c1 (stereo not drawn) [Compound 25] | < 20 µM | < 0.25 µM |
| CC(C)N1C[C@H](C(c2ccccc2)c2ccccc2)n2ncc(=O)c(OC(=O)C3CCCC3)c2C1=O [Compound 119] | < 20 µM | < 0.25 µM |
| CCN1CC(C(c2cccc(F)c2)c2cccc(F)c2)n2ncc(=O)c(O)c2C1=O (stereo not drawn) [Compound 21] | < 20 µM | < 0.25 µM |
| CN1CC(C(c2cccc(Cl)c2)c2ccccc2F)n2ncc(=O)c(O)c2C1=O (stereo not drawn) [Compound 62] | < 20 µM | < 0.25 µM |
| CC(N)C(=O)OCOc1c2n(ncc1=O)[C@@H](C(c1ccccc1)c1ccccc1)CN(C(C)C)C2=O (stereo partly drawn) [Compound 106-A] | < 20 µM | < 0.25 µM |
| CN1C[C@@H](C2c3cc(F)ccc3CCc3c(F)cccc32)n2ncc(=O)c(O)c2C1=O (stereo partly drawn) [Compound 71] | 20 to 100 µM | 0.25 to 1 µM |
| CC(C)C(=O)Oc1c2n(ncc1=O)[C@@H](C1c3ccccc3CCc3ccccc31)CN(C)C2=O [Compound 65-A] | < 20 µM | < 0.25 µM |
| CN1CC(C(c2cccc(F)c2)c2cccc(F)c2)n2ncc(=O)c(O)c2C1=O (stereo not drawn) [Compound 22] | < 20 µM | < 0.25 µM |
| CC(C)N1C[C@@H](C(c2cccc(Cl)c2)c2cccc(Cl)c2)n2ncc(=O)c(O)c2C1=O [Compound 68-B] | < 20 µM | 0.25 to 1 µM |
| CC(C)N1C[C@@H](C2c3ccccc3CCc3ccccc32)n2ncc(=O)c(O)c2C1=O [Compound 17-B] | < 20 µM | < 0.25 µM |
